Data taken from patent publication US20230107186A1, “COBICISTAT FOR PREVENTION AND/OR TREATMENT OF CORONAVIRUS INFECTIONS” (priority 2020, published 2023).

Tested on: S-protein
Type: cell-based, SARS-CoV-2

With `CC(C)c1nc(CN(C)C(=O)N[C@@H](CCN2CCOCC2)C(=O)N[C@H](CC[C@H](Cc2ccccc2)NC(=O)OCc2cncs2)Cc2ccccc2)cs1` [Cobicistat, 1,3-thiazol-5-ylmethyl [(2R,5R)-5-{[(2S)-2-({[(2-isopropyl-1,3-thiazol-4-yl)methyl](methyl)carbamoyl}amino)-4-(morpholin-4-yl)butanoyl]amino}-1,6-diphenylhexan-2-yl]carbamate] the S-protein levels was “decreased” and the “concentration range with effect in western blot analysis” value was 5 to 10 µM.
